For twelve compounds, MIC results are on record in DBAASP.

Molecules are shown by their SMILES. ≈ marks a conversion by molar mass, not a printed value. Where “and” joins values, the source holds several entries; their conditions need not be identical. Identical values can stand only once.

Test systems include Escherichia coli JW0013; Escherichia coli UB1005; Streptococcus mutans.
What all share (assay): ≥ marks a high value that may be exact or a test limit, other limits are often not marked, values filed in µg/mL are converted to µM
Test [1] relates to Staphylococcus aureus USA 300.
In test [2] the test system is Escherichia coli ATCC 25922.
Test [3] relates to Pseudomonas aeruginosa PAO1.
Test [4] deals with Klebsiella pneumoniae ATCC 13883.
Test [5] relates to Escherichia coli KCTC 1682.
For test [6], the system named is Pseudomonas aeruginosa KCTC 1637.
Test [7] relates to Bacillus subtilis KCTC 3068.
The test system of test [8] is Staphylococcus aureus KCTC 1621.
The test system of test [9] is Salmonella typhimurium KCTC 1926.
Test [10] relates to Staphylococcus epidermidis KCTC 1917.
Test [11] has as its system Staphylococcus epidermidis C621.
Test [12] has as its system Pseudomonas aeruginosa ATCC 27853.
For test [13], the system named is Bacillus subtilis ATCC 6633.
Test [14] concerns Enterococcus faecalis ATCC 29212.
Test [15] deals with Staphylococcus aureus ATCC 25923.
For test [16], the system named is Staphylococcus aureus ATCC 43300.

For `CC[C@H](C)[C@H](NC(=O)[C@H](CCC(N)=O)NC(=O)[C@H](CCC(N)=O)NC(=O)[C@@H](NC(=O)[C@@H](NC(=O)[C@H](CCCN=C(N)N)NC(=O)[C@H](CCCCN)NC(=O)[C@H](Cc1ccccc1)NC(=O)CN)[C@@H](C)CC)C(C)C)C(=O)N[C@@H](CCC(N)=O)C(=O)N[C@@H](CC(=O)O)C(=O)N[C@@H](Cc1ccccc1)C(=O)N[C@@H](CC(C)C)C(=O)N[C@@H](CCCN=C(N)N)C(=O)N[C@@H](CC(N)=O)C(=O)N[C@@H](CC(C)C)C(=O)N[C@H](C(N)=O)C(C)C` [GFKRIVQQIQDFLRNLV], the MIC in test [1] is 6.2 µM and 12.5 µM.
Consider `CC(C)C[C@H](NC(=O)[C@H](C)NC(=O)[C@H](CCCCN)NC(=O)CNC(=O)[C@H](CC(C)C)NC(=O)[C@H](C)NC(=O)[C@H](CCCCN)NC(=O)[C@H](CC(C)C)NC(=O)[C@H](C)NC(=O)[C@H](CO)NC(=O)[C@H](CC(C)C)NC(=O)[C@H](CC(C)C)NC(=O)CN)C(N)=O` [GLLSALKALGKAL], for which the MIC in [2] was 25 µM (≈ 31.3 µg/mL); in test [3] it was more than 25 µM; in test [4], 25 µM (≈ 31.3 µg/mL); in test [1], 25 µM (≈ 31.3 µg/mL).
`CC[C@H](C)[C@H](NC(=O)[C@H](Cc1ccc(O)cc1)NC(=O)[C@@H](NC(=O)[C@@H]1CCCN1C(=O)[C@H](CCCCN)NC(=O)[C@H](CC(N)=O)NC(=O)[C@H](CC(N)=O)NC(=O)CN)C(C)C)C(=O)N1CCC[C@H]1C(=O)N[C@@H](CCC(N)=O)C(=O)N1CCC[C@H]1C(=O)N[C@@H](CCCN=C(N)N)C(=O)N1CCC[C@H]1C(=O)N1CCC[C@H]1C(=O)N[C@@H](Cc1cnc[nH]1)C(=O)N1CCC[C@H]1C(=O)N[C@@H](CCCN=C(N)N)C(=O)N[C@@H](CC(C)C)C(=O)O` [GNNKPVYIPQPRPPHPRL]: the MIC against Escherichia coli JW0013 stood at 0.3 µM (≈ 0.624 µg/mL).
Take `CC(C)C[C@H](NC(=O)[C@H](CCCCN)NC(=O)[C@H](CCCCN)NC(=O)[C@H](CC(C)C)NC(=O)[C@H](CC(C)C)NC(=O)[C@H](CCCCN)NC(=O)[C@H](CCCCN)NC(=O)[C@H](CC(C)C)NC(=O)[C@H](CCCCN)NC(=O)[C@H](CCCCN)NC(=O)[C@H](CCCN=C(N)N)NC(=O)[C@H](CC(C)C)NC(=O)[C@H](CCCN=C(N)N)NC(=O)[C@H](CCCCN)NC(=O)[C@H](CC(C)C)NC(=O)[C@H](CCCN=C(N)N)NC(=O)CN)C(=O)N[C@@H](CO)C(N)=O` [GRLKRLRKKLKKLLKKLS]: the MIC in test [5] is 8 µM (≈ 17.6 µg/mL); in [6] it was 4 µM (≈ 8.82 µg/mL); in test [7], 4 µM (≈ 8.82 µg/mL); in [8], 4 µM (≈ 8.82 µg/mL); in test [9], 2 µM (≈ 4.41 µg/mL); in test [10], 8 µM (≈ 17.6 µg/mL).
For `CC(C)C[C@H](NC(=O)[C@H](Cc1ccc(O)cc1)NC(=O)[C@H](Cc1cnc[nH]1)NC(=O)[C@@H](NC(=O)[C@H](CC(C)C)NC(=O)[C@H](C)NC(=O)[C@H](C)NC(=O)[C@H](CCCCN)NC(=O)[C@H](C)NC(=O)[C@@H](NC(=O)[C@H](Cc1cnc[nH]1)NC(=O)[C@H](CCCCN)NC(=O)CNC(=O)[C@@H](NC(=O)[C@H](Cc1cnc[nH]1)NC(=O)[C@H](C)NC(=O)[C@H](C)NC(=O)[C@H](CCCCN)NC(=O)[C@H](CCCCN)NC(=O)[C@H](Cc1ccccc1)NC(=O)[C@H](Cc1ccccc1)NC(=O)[C@H](CO)NC(=O)CNC(=O)[C@H](Cc1c[nH]c2ccccc12)NC(=O)CN)C(C)C)C(C)C)[C@@H](C)O)C(=O)O` [GWGSFFKKAAHVGKHVAKAALTHYL], the MIC turned out to be 2 µM (≈ 5.45 µg/mL) in [5]; 2 µM (≈ 5.45 µg/mL) in [6]; 2 µM (≈ 5.45 µg/mL) in test [7]; 1 µM (≈ 2.73 µg/mL) in test [8]; 2 µM (≈ 5.45 µg/mL) in test [9]; 1 µM (≈ 2.73 µg/mL) in [10].
`CC[C@H](C)[C@H](N)C(=O)N[C@@H](CC(C)C)C(=O)N[C@@H](CCCCN)C(=O)N[C@@H](CC(C)C)C(=O)N[C@@H](Cc1ccccc1)C(=O)N[C@@H](CCCCN)C(=O)N[C@@H](CCCN=C(N)N)C(=O)N[C@H](C(=O)N[C@H](C(=O)N[C@@H](CCCCN)C(=O)N[C@@H](CCCN=C(N)N)C(=O)N[C@H](C(=O)N[C@@H](CC(C)C)C(=O)N[C@@H](CCCCN)C(=O)N[C@@H](Cc1ccccc1)C(=O)N[C@@H](CC(C)C)C(=O)N[C@@H](CCCN=C(N)N)C(=O)N[C@@H](CCCCN)C(=O)N[C@@H](CC(C)C)C(=O)O)[C@@H](C)CC)C(C)C)[C@@H](C)CC` [ILKLFKRIVKRILKFLRKL]: the MIC in test [5] turned out to be 8 µM (≈ 19.4 µg/mL); in [6], 8 µM (≈ 19.4 µg/mL); in [7], 4 µM (≈ 9.7 µg/mL); in test [8] it was 8 µM (≈ 19.4 µg/mL); in [9], 8 µM (≈ 19.4 µg/mL); in test [10], 4 µM (≈ 9.7 µg/mL).
Regarding `C[C@H](NC(=O)[C@H](C)NC(=O)[C@H](Cc1c[nH]c2ccccc12)NC(=O)[C@H](C)NC(=O)[C@H](C)NC(=O)[C@H](Cc1c[nH]c2ccccc12)NC(=O)[C@H](C)NC(=O)[C@H](C)NC(=O)[C@H](Cc1c[nH]c2ccccc12)NC(=O)[C@H](C)NC(=O)[C@H](C)NC(=O)[C@H](CCCCN)NC(=O)[C@H](CCCCN)NC(=O)[C@H](CCCCN)NC(=O)[C@H](CCCCN)NC(=O)[C@H](CCCCN)NC(=O)[C@@H](N)CCCCN)C(N)=O` [KKKKKKAAWAAWAAWAA], the MIC was 8 µM (≈ 15.3 µg/mL) in test [2]; 8 µM (≈ 15.3 µg/mL) in test [11]; 1 µM (≈ 1.91 µg/mL) against Escherichia coli UB1005; 8 µM (≈ 15.3 µg/mL) in test [12]; 4 µM (≈ 7.65 µg/mL) in test [13]; more than 32 µM in [14]. Further, in test [15], the MIC was 32 µM (≈ 61.2 µg/mL).
For the compound `CC[C@H](C)[C@H](NC(=O)[C@H](CCCCN)NC(=O)[C@@H]1CCCN1C(=O)[C@H](CC(C)C)NC(=O)[C@@H](N)CCCCN)C(=O)N[C@@H](Cc1c[nH]c2ccccc12)C(=O)N[C@@H](Cc1c[nH]c2ccccc12)C(=O)N[C@H](C(=O)N[C@@H](CCCCN)C(=O)N[C@H](C(=O)N1CCC[C@H]1C(=O)N[C@@H](CCCCN)C(N)=O)C(C)C)[C@@H](C)CC` [KLPKIWWIKVPK], the MIC was 8.14 µM (≈ 12.5 µg/mL) in test [5]; 4.07 µM (≈ 6.25 µg/mL) in test [6]; 4.07 µM (≈ 6.25 µg/mL) in test [7]; 8.14 µM (≈ 12.5 µg/mL) in test [8]; 4.07 µM (≈ 6.25 µg/mL) in [9]; 4.07 µM (≈ 6.25 µg/mL) in test [10].
Regarding `CC[C@H](C)[C@H](NC(=O)[C@H](CC(C)C)NC(=O)[C@@H](N)CC(C)C)C(=O)N[C@H](C(=O)N[C@@H](CC(C)C)C(=O)N[C@@H](CCCN=C(N)N)C(=O)N[C@@H](CCCN=C(N)N)C(=O)N[C@@H](CCCN=C(N)N)C(=O)N[C@@H](Cc1c[nH]c2ccccc12)C(=O)N[C@@H](CCCN=C(N)N)C(=O)N[C@@H](CCCCN)C(=O)N[C@@H](CCC(N)=O)C(=O)N[C@@H](C)C(=O)N[C@@H](CCCCN)C(=O)N[C@@H](C)C(=O)N[C@@H](CCCCN)C(=O)N[C@@H](CO)C(=O)N[C@@H](CCCCN)C(N)=O)[C@@H](C)CC` [LLIILRRRWRKQAKAKSK], the minimal inhibitory concentration (MIC) came out at 8 µM (≈ 18.1 µg/mL) in [5]; 8 µM (≈ 18.1 µg/mL) in [6]; 4 µM (≈ 9.06 µg/mL) in test [7]; 4 µM (≈ 9.06 µg/mL) in [8]; 4 µM (≈ 9.06 µg/mL) in test [9]; 8 µM (≈ 18.1 µg/mL) in [10].
As for `CC[C@H](C)[C@H](NC(=O)[C@H](CCCN=C(N)N)NC(=O)[C@H](CCCN=C(N)N)NC(=O)[C@@H]1CCCN1C(=O)[C@@H]1CCCN1C(=O)[C@H](CCCN=C(N)N)NC(=O)[C@@H]1CCCN1C(=O)[C@H](CCCN=C(N)N)NC(=O)[C@@H]1CCCN1C(=O)[C@H](CC(C)C)NC(=O)[C@H](Cc1ccc(O)cc1)NC(=O)[C@@H]1CCCN1C(=O)[C@@H]1CCCN1C(=O)[C@H](CCCCN)NC(=O)[C@H](CC(=O)O)NC(=O)[C@@H](N)CCC(N)=O)C(=O)N[C@@H](Cc1ccc(O)cc1)C(=O)N[C@@H](CC(N)=O)C(=O)N[C@@H](CCCN=C(N)N)C(N)=O` [QDKPPYLPRPRPPRRIYNR], the MIC in the test on Escherichia coli JW0013 was 1.98 µM (≈ 4.8 µg/mL).
On to `NC(N)=NCCC[C@H](NC(=O)[C@H](CCCN=C(N)N)NC(=O)[C@H](CCCN=C(N)N)NC(=O)[C@@H](N)CCCN=C(N)N)C(=O)N[C@@H](Cc1c[nH]c2ccccc12)C(=O)N[C@@H](Cc1c[nH]c2ccccc12)C(=O)N[C@@H](Cc1c[nH]c2ccccc12)C(=O)O` [RRRRWWW], for which the MIC against Streptococcus mutans was 13.3 µM (≈ 16 µg/mL); in [16] it was 125 µM (≈ 150 µg/mL); in test [3], 125 µM (≈ 150 µg/mL).
Take `CC[C@H](C)[C@H](NC(=O)[C@H](CC(N)=O)NC(=O)[C@H](CCCCN)NC(=O)[C@H](CC(C)C)NC(=O)[C@H](CO)NC(=O)[C@H](CCC(N)=O)NC(=O)[C@H](CC(C)C)NC(=O)[C@@H](NC(=O)[C@@H](N)[C@@H](C)O)[C@@H](C)CC)C(=O)N[C@@H](Cc1ccccc1)C(=O)N[C@@H](CCCCN)C(=O)O` [TILQSLKNIFK]: the MIC against Streptococcus mutans was not below 95.8 µM.

Usually MIC stands for the least concentration at which growth counts as inhibited. Read a low MIC as inhibition by little substance.
